Experimental data from article PMC5100701 (Bioconjugate chemistry, 2016).
Read-outs that look alike come from different tables or passages of the source.

What was measured:
[1] = biodistribution: tissue fluorescence in harvested organs; type: in vivo, C57BL/6 mice; conditions: organs harvested 4h post-injection, 1 nmol injected
[2] = LC/MS analysis of mouse urine; type: in vivo, C57BL/6 mice; conditions: mouse urine 4h after injection
[3] = biological target: T1, human MMP-12 (Homo sapiens, UniProt P39900); conditions: read-out: Ki toward human MMP-12; cited from earlier work
T1 sequence (P39900 106-470): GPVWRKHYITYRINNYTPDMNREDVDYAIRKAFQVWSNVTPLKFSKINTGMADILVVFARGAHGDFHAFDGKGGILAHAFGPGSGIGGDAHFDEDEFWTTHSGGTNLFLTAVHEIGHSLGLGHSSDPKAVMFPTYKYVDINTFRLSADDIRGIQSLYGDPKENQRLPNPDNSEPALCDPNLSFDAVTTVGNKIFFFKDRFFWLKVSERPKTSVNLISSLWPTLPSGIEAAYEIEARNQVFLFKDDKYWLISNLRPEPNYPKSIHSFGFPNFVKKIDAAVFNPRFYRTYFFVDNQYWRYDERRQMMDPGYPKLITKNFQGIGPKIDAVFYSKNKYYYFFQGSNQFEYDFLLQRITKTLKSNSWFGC

[4] = biological target: T1, human MMP-12; assay: in vitro binding; type: biochemical; conditions: read-out: Ki (nM)/hMMP12; 50 mM Tris/HCl buffer, pH 6.8, 10 mM CaCl2, 25 °C; mean ± SD of three experiments
[5] = biological target: T1, human MMP-12; assay: ability to block MMP-12 activity in presence of human serum albumin; type: biochemical; conditions: hSA 5 μM
[6] = test system: atherosclerotic plaque; conditions: mouse model of atherosclerosis; cited from earlier work
[7] = blood clearance after intravenous injection in mice; type: in vivo; conditions: C57BL/6 mice, 1 nmol injected, n=3, 4h post-injection

Structure (SMILES)	tissue fluorescence in liver, spleen, kidneys and lungs [1]	conversion into a second metabolite in urine [2]	Ki [3] [nM]	Ki [4] [nM]	shift of Ki in presence of human serum albumin [5] [fold]	effect on atherosclerotic plaque [6]	percentage of injected dose remaining in the bloodstream 4h post-injection [7] [%ID]
CC1(C)C(=CC=C2CCCC(C=CC3=[N+](CCCCCC(=O)NCCOCCOCCNC(=O)[C@H](CCC(=O)O)NC(=O)[C@H](CCC(=O)O)NC(=O)[C@H](Cc4cc(-c5ccc(-c6cccc(Cl)c6)cc5)no4)CP(=O)(O)c4ccc(Br)cc4)c4ccc(S(=O)(=O)O)cc4C3(C)C)=C2Oc2ccc(S(=O)(=O)O)cc2)N(CCCCS(=O)(=O)O)c2ccc(S(=O)(=O)[O-])cc21 [probe 4]	cleared by the kidneys, but its uptake by the liver is not negligible	about 50%					
NC(=O)[C@H](CCC(=O)O)NC(=O)[C@H](CCC(=O)O)NC(=O)[C@H](Cc1cc(-c2ccc(-c3cccc(Cl)c3)cc2)no1)CP(=O)(O)c1ccc(Br)cc1 [RXP470.1, reference compound]			0.26	0.26 ± 0.05	8.5	inhibit atherosclerotic plaque growth	
CC[N+]1=C(C=CC=CC=C2N(CCCCCC(=O)NCCOCCOCCNC(=O)[C@H](CCC(=O)O)NC(=O)[C@H](CCC(=O)O)NC(=O)[C@H](Cc3cc(-c4ccc(-c5cccc(Cl)c5)cc4)no3)CP(=O)(O)c3ccc(Br)cc3)c3ccc4c(S(=O)(=O)O)cc(S(=O)(=O)[O-])cc4c3C2(C)C)C(C)(C)c2c1ccc1c(S(=O)(=O)O)cc(S(=O)(=O)O)cc21 [probe 1]	higher fluorescence signals in the kidneys relative to the liver				88		25.1±2.9
